# From patent publication US20080033026A1, “Antimicrobial compositions, methods and systems” (priority 2006, published 2008)
# What was measured:
# [1] = Solubility studies in water and isopropanol (GC/FID); assay type: physicochemical; settings: mg 9-decenoic acid/g solvent
# Experimental: For the antimicrobial agents of Formulae I-III, the solubility in an aqueous and an alcohol environment was studied. Solubility studies were carried out with the sodium (Na) and potassium (K) salts of 9-decenoic acid in water and isopropanol (IPA). Six samples were analyzed. The samples were as follows: Na salt in water, Na salt in IPA, K salt in water, K salt in IPA, 9-decenoic acid (protonated) in water, 9-decenoic acid (protonated) in IPA. For the protonated form of the acids, the samples were acidified and diluted in IPA and subjected to analysis by gas chromatography/flame ionization detector (GC/FID). The same procedure was followed for the Na and K salts in IPA. For the Na and K salts in water, the samples were acidified and then extracted with petroleum ether. The petroleum ether was then evaporated, and the samples were reconstituted in IPA, acidified and subjected to analysis by GC/FID. Concentrations were calculated by comparing the peak area of the sample to a calibration table of 9-decenoic acid. The calibration curve was linear from 1 mg/g to 500 mg/g. Results are reported in mg/g (mg 9-decenoic acid/g solvent).
# [2] = tested on: Bacillus cereus ATCC 14579; test: Growth inhibition in MRS medium (OD600); assay type: cell-based; settings: n = 2
# Experimental: (§1) Efficacy of potassium salts of 9-DA were determined through incubation of the following organisms in the presence of varying concentrations of the potassium salt: Serratia marcescens ATCC 990, Pseudomonas straminea ATCC 33636, Bacillus subtilis ATCC 6051, Bacillus licheniformis ATCC 14580, Bacillus cereus ATCC 14579, Pediococcus acidilactici ATCC 8042, and Lactobacillus casei ATCC 334.
# (§2) Stock cultures of each organism were transferred into MRS liquid medium. MRS medium (Difco 288130) was purchased from Becton, Dickinson and Company, Sparks, Md.
# (§3) The efficacy of different levels of potassium salts of 9-DA (K-9-DA) was tested depending on the organism to inhibit the growth of various microorganisms indicated above.
# (§4) The selected organisms were incubated overnight in 5 ml of MRS medium at 35° C. and 250 rpm. MRS media with K-9-DA were prepared, along with a control of straight media (no antimicrobial added). The concentrated antimicrobial agents were diluted with the appropriate media required for the respective microorganisms, to reach the required concentrations for the studies as indicated below. The antimicrobial agents were added by weight/volume percent on an ‘as 9-DA’ basis to the media. The purity of the antimicrobial agent (99% for K-9-DA) was taken into account. The pH of the medium was not adjusted. The target for initial cell density was 10^5 to 10^6 cfu/ml. According to the McFarland standard, 0.01 OD600 is equivalent to approximately 10^8 cfu/ml. To achieve the proper dilution, 30 μl of overnight culture diluted to 0.01 OD600 was added to the 3 ml of media in each tube. The tubes were incubated at 35° C. Treatments were all done in duplicate. All strains were shaken at 250 rpm, with the exception of Lactobacillus (because it is anaerobic). OD600 readings were taken at 0, 4, 17, 23 and 47 hours.
# (§5) “Percent reduction in comparison with control” was defined as (1−abs. of treatment/abs. of control)×100.
# [3] = tested on: Bacillus licheniformis ATCC 14580; test: Growth inhibition in MRS medium (OD600); assay type: cell-based; settings: n = 2
# Experimental: as §1, §2, §3, §4, §5
# [4] = tested on: Bacillus subtilis ATCC 6051; test: Growth inhibition in MRS medium (OD600); assay type: cell-based; settings: n = 2
# Experimental: as §1, §2, §3, §4, §5
# [5] = tested on: Lactobacillus casei ATCC 334; test: Growth inhibition in MRS medium (OD600); assay type: cell-based; settings: n = 2
# Experimental: as §1, §2, §3, §4, §5
# [6] = tested on: Pediococcus acidilactici ATCC 8042; test: Growth inhibition in MRS medium (OD600); assay type: cell-based; settings: n = 2
# Experimental: as §1, §2, §3, §4, §5
# [7] = tested on: Pseudomonas straminea ATCC 33636; test: Growth inhibition in MRS medium (OD600); assay type: cell-based; settings: n = 2
# Experimental: as §1, §2, §3, §4, §5
# [8] = tested on: Serratia marcescens ATCC 990; test: Growth inhibition in MRS medium (OD600); assay type: cell-based; settings: n = 2
# Experimental: as §1, §2, §3, §4, §5
# [9] = tested on: organisms of Table 14 with the exception of Serratia marcescens, Bacillus licheniformis, and Lactobacillus casei; test: Growth inhibition in MRS medium (OD600), organisms of Table 14 except Serratia marcescens, Bacillus licheniformis, Lactobacillus casei; assay type: cell-based; settings: all concentrations tested
# Experimental: as §1, §2, §3
# The selected organisms were incubated overnight in 5 ml of MRS medium at 35° C. and 250 rpm. MRS media with K-9-DA were prepared, along with a control of straight media (no antimicrobial added). The concentrated antimicrobial agents were diluted with the appropriate media required for the respective microorganisms, to reach the required concentrations for the studies as indicated below. The antimicrobial agents were added by weight/volume percent on an ‘as 9-DA’ basis to the media. The purity of the antimicrobial agent (99% for K-9-DA) was taken into account. The pH of the medium was not adjusted. […] OD600 readings were taken at 0, 4, 17, 23 and 47 hours. […]
# [10] = tested on: Bacillus cereus ATCC 14579; test: Growth inhibition in MRS medium at various pH levels (OD600); assay type: cell-based; settings: 0.1% w/v (as 9DA)
# Experimental: (§6) Efficacy of potassium salts of 9-DA was tested at various pH levels against the following: Serratia marcescens ATCC 990, and Bacillus cereus ATCC 14579.
# as §2
# (§7) The efficacy of potassium salts of 9-DA (K-9-DA) was tested at different concentrations and pH levels, including 6.75 (unadjusted), 7.5, and 8.5.
# (§8) The selected organisms were incubated overnight in 5 ml of MRS medium at 35° C. and 250 rpm. MRS media with K-9-DA were prepared, along with a control of straight media (no antimicrobial added). The antimicrobial agents were added by weight/volume percent to the media. The purity of the composition, 99% for K-9-DA, was taken into account. The pH adjustments to 7.5 and 8.5 were done with 50% potassium hydroxide. Filter sterilization was used instead of autoclaving to prevent adverse chemical reactions at higher pH and temperature. The target for initial cell density was 10^5 to 10^6 cfu/ml. According to the McFarland standard, 0.01 OD600 is equivalent to approximately 10^8 cfu/ml. To achieve the proper dilution, 30 μl of overnight culture diluted to 0.01 OD600 was added to the 3 ml of media in each tube. The tubes were incubated at 35° C. with the exception of Pseudomonas strains which were incubated at 30° C. Treatments were all done in duplicate. All strains were shaken at 250 rpm. OD600 readings were taken at 0, 19, 25.5, 42.5 and 49 hours.
# (§9) “Percent reduction in growth vs. control” was defined as (1−abs. of treatment/abs. of control)×100.
# [11] = tested on: Serratia marcescens ATCC 990; test: as above; assay type: cell-based; settings: 0.1% w/v (as 9DA)
# Experimental: as §6, §2, §7, §8, §9
# Pseudomonas straminea = test: as above; assay type: cell-based; settings: 0.075% w/v (as 9DA)
# [12] = tested on: all organisms tested in Tables 15-17 with the exception of Serratia marcescens; test: Growth inhibition in MRS medium at various pH levels, organisms of Tables 15-17 except Serratia marcescens; assay type: cell-based
# Experimental: as §6, §2, §7
# as §8, with “The tubes were incubated at 35° C. with the exception of Pseudomonas strains which were incubated at 30° C. Treatments were all done in duplicate. All strains were shaken at 250 rpm.” left out, “hours. […]” for “hours.”
smiles,measurement,setting,value
C=CCCCCCCCC(=O)O.[K] [Potassium-9 Decenoic Acid],"Solubility, Concentration",[1]; in isopropanol,10 mg/g
same,"Solubility, Concentration",[1]; in water,240 mg/g
same,% reduction in growth vs. control,[2]; 0.075% w/v 9DA from K9DA,98.4%
same,Abs at 600 nm,[2]; 0.075% w/v 9DA from K9DA,0.093
same,% reduction in growth vs. control,[2]; 0.1% w/v 9DA from K9DA,96.2%
same,Abs at 600 nm,[2]; 0.1% w/v 9DA from K9DA,0.216
same,% reduction in growth vs. control,[3]; 0.075% w/v 9DA from K9DA,88.6%
same,Abs at 600 nm,[3]; 0.075% w/v 9DA from K9DA,0.300
same,% reduction in growth vs. control,[3]; 0.1% w/v 9DA from K9DA,99.1%
same,Abs at 600 nm,[3]; 0.1% w/v 9DA from K9DA,0.023
same,% reduction in growth vs. control,[4]; 0.05% w/v 9DA from K9DA,97.3%
same,Abs at 600 nm,[4]; 0.05% w/v 9DA from K9DA,0.157
same,% reduction in growth vs. control,[4]; 0.075% w/v 9DA from K9DA,98.4%
same,Abs at 600 nm,[4]; 0.075% w/v 9DA from K9DA,0.094
same,% reduction in growth vs. control,[5]; 0.05% w/v 9DA from K9DA,93.3%
same,Abs at 600 nm,[5]; 0.05% w/v 9DA from K9DA,0.461
same,% reduction in growth vs. control,[5]; 0.075% w/v 9DA from K9DA,96.9%
same,Abs at 600 nm,[5]; 0.075% w/v 9DA from K9DA,0.211
same,% reduction in growth vs. control,[6]; 0.025% w/v 9DA from K9DA,100.0%
same,Abs at 600 nm,[6]; 0.025% w/v 9DA from K9DA,−0.038
same,% reduction in growth vs. control,[6]; 0.05% w/v 9DA from K9DA,96.1%
same,Abs at 600 nm,[6]; 0.05% w/v 9DA from K9DA,0.224
same,% reduction in growth vs. control,[7]; 0.05% w/v 9DA from K9DA,96.9%
same,Abs at 600 nm,[7]; 0.05% w/v 9DA from K9DA,0.190
same,% reduction in growth vs. control,[7]; 0.075% w/v 9DA from K9DA,97.3%
same,Abs at 600 nm,[7]; 0.075% w/v 9DA from K9DA,0.165
same,% reduction in growth vs. control,[8]; 0.075% w/v 9DA from K9DA,97.7%
same,Abs at 600 nm,[8]; 0.075% w/v 9DA from K9DA,0.181
same,% reduction in growth vs. control,[8]; 0.1% w/v 9DA from K9DA,94.6%
same,Abs at 600 nm,[8]; 0.1% w/v 9DA from K9DA,0.412
same,reduction in growth when compared to controls,[9],≥ 96%
same,% reduction in growth vs. control,[10]; Non-pH adjusted (6.75),96.5%
same,% reduction in growth vs. control,[10]; pH 7.5,96.2%
same,% reduction in growth vs. control,[10]; pH 8.5,93.9%
same,% reduction in growth vs. control,[11]; Non-pH adjusted (6.75),98.5%
same,% reduction in growth vs. control,[11]; pH 7.5,18.5%
same,% reduction in growth vs. control,[11]; pH 8.5,37.4%
same,% reduction in growth vs. control,Pseudomonas straminea; Non-pH adjusted (6.75),98.6%
same,% reduction in growth vs. control,Pseudomonas straminea; pH 7.5,96.2%
same,% reduction in growth vs. control,Pseudomonas straminea; pH 8.5,93.9%
same,reduction in growth,"[12]; pH 7.5, concentrations of Tables 15-17",96%
same,reduction in growth,"[12]; pH 8.5, concentrations of Tables 15-17",94%
